Here are results for six compounds from patent publication US5741798A, “2-benzyl-4-sulfonyl-4H-isoquinolin-1,3-diones and their use as antiinflammatory agents” (priority 1997, dated 1998).

The term inhibition denotes the drop in the measured response relative to a control, in per cent. As a reminder, the IC50 is the concentration that inhibits the measured activity by half.

Assay [1] concerns the target Human cyclooxygenase 1 (COX-1) (Homo sapiens, UniProt P23219). The assay can be described thus: COX-1 inhibition, microsomal assay. The conditions noted are these: 20 min, read-out: % Inhibition of COX Enzymes in Microsomal Assays, COX-1. As for the experimental part:
(§1) Human cyclooxygenase 1 and 2 are expressed in a baculovirus expression system using High 5 insect cells. Microsomal fractions prepared from the cells are stored at -80° C. The assays are performed at room temperature in phosphate buffered saline. After incubating the COX-1 or COX-2 microsomes with hematin (2 μM), phenol (0.5 mM) and reduced glutathione (1 mM) for 5 minutes, inhibitor or DMSO vehicle is added and allowed to incubate for 20 minutes. Arachidonic acid (2 μM) is added and after 20 minutes the reaction is stopped by the addition of HCl (0.1 N HCl final concentration).
(§2) The inhibitory activities against COX-1 and COX-2 of the compounds described in the above Synthetic Examples were determined using the two in vitro assays described above.

The target of a further assay is T1, human recombinant COX-1 (Homo sapiens, UniProt P23219).
T1 construct: expressed in transfected cells; host or cells: Cos-A2 cells, stably transfected
T1 sequence (P23219 24-599): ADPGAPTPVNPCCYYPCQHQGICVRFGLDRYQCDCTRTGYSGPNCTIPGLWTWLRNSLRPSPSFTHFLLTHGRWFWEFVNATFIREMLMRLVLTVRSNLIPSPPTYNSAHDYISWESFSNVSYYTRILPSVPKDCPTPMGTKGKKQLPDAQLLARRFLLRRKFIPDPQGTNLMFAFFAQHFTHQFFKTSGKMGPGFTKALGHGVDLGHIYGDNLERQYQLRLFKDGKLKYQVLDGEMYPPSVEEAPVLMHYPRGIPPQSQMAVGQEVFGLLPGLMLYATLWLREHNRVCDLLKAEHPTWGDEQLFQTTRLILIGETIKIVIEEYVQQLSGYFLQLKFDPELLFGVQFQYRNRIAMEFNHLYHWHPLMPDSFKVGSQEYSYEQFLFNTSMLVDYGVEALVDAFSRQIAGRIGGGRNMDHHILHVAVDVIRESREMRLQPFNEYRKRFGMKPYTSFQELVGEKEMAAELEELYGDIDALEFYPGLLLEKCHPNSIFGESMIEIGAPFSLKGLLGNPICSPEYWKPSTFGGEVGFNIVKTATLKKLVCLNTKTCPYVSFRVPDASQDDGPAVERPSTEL
In words: COX-1 inhibition, COS cell assay. In kind it is cell-based. Conditions: for inhibition at 0.1 µM / inhibition at 1 µM / inhibition at 10 µM: COS, read-out: Inhibition of COX Enzymes in COS Cell Assays, COX-1 % inhibition. As for the experimental part: (§3) Cos-A2 cells stably transfected with human recombinant COX-1 or COX-2 are cultured in 96 well tissue culture plates with Dulbecco's Modified Eagle Medium supplemented with 10% fetal bovine serum, glutamine (2 mM), penicillin (50 U/mL), streptomycin ([…]) and geneticin (400 μg/mL). Media is removed from confluent monolayers and the cells are washed twice with Hank's buffered saline solution. Fresh HBSS is added, with or without inhibitor, and the cells are incubated for 30 minutes at 37° C. Arachidonic acid (30 μM) is then added and the cells are incubated for an additional one hour at 37° C. Individual experiments represent a mean of triplicate wells for control and inhibitor doses. Supernatents are removed and stored at -80° C. until assayed for PGE2 by EIA (Amersham).
as §2

Assay [2] relates to Carrageenan-induced paw edema. In words: Carrageenan-Induced Paw Edema in Rats. Type of assay: in vivo, rat. Conditions: oral, *p < 0.05. As for the experimental part:
The antiinflammatory activities of two compounds in accordance with the invention (those of Examples 1 and 10) were determined in vivo and compared to those of the known antiinflammatory agents indomethacin and meloxicam, using the Carrageenan-Induced Paw Edema in Rats protocol described by C. A Winter et al. J. Pharmacol. Exp. Ther. 1963, 141, 369. Test compounds were administered orally.
On the technique in general: In the carrageenan paw model, swelling and tenderness develop within hours.

Another assay has as its system COX-2. Conditions: in words, background; cited from earlier work.
The target in assay [3] is T2, Human cyclooxygenase 2 (COX-2) (Homo sapiens, UniProt P35354).
T2 sequence (P35354 18-604): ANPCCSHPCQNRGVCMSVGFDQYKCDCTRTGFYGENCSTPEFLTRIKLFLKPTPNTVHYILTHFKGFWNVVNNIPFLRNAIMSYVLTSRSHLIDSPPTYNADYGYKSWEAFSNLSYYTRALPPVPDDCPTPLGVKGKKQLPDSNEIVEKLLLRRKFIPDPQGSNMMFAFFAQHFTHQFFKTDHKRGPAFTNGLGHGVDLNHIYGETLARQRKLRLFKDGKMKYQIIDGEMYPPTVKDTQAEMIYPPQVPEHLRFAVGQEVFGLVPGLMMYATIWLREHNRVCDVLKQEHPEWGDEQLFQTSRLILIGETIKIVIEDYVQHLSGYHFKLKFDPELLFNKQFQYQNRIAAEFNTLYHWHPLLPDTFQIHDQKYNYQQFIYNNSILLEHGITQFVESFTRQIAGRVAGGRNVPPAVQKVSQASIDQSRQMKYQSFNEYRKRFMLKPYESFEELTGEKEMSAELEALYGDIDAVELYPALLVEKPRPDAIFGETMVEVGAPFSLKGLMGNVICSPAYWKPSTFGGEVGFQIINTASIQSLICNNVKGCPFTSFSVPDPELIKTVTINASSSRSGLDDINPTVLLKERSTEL
The assay can be described thus: COX-2 inhibition, microsomal assay. Conditions: 20 min, read-out: % Inhibition of COX Enzymes in Microsomal Assays, COX-2. How it is done:
as §1, §2

Another assay addresses T3, human recombinant COX-2 (Homo sapiens, UniProt P35354).
T3 construct: expressed in transfected cells; host or cells: Cos-A2 cells, stably transfected
T3 sequence (P35354 18-604): T2 sequence (P35354 18-604)
The assay can be described thus: COX-2 inhibition, COS cell assay. Type of assay: cell-based. Conditions: for IC50: COS cells, COX-2, read-out: Inhibition of COX Enzymes in COS Cell Assays, COX-2 IC50. How it is done: as §3, §2

The mark [4] stands for this setting: COS, read-out: Inhibition of COX Enzymes in COS Cell Assays, COX-2 % inhibition.

Read-outs that look alike come from different tables or passages of the source.

Chain of Human cyclooxygenase 1 (COX-1) (P23219 24-599): as the sequence (P23219 24-599) above

Consider `CC(C)S(=O)(=O)C1C(=O)N(Cc2ccccc2)C(=O)c2ccc(Cl)cc21` (stereo not drawn) [Example 1, 2-Benzyl-6-chloro-4-(1-methylethyl)sulfonyl-4H-isoquinolin-1,3-dione], for which, in assay [1], the inhibition at 0.1 µg/mL was 10%, the inhibition at 1 µg/mL came out at 34% and the inhibition at 10 µg/mL was 57%. The half-maximal inhibitory concentration (IC50) on human recombinant COX-1 (COS cells, COX-1, read-out: Inhibition of COX Enzymes in COS Cell Assays, COX-1 IC50) came out at 1400 nM. Further, in assay [2] (30 mg/kg), the “Effect of Compounds in Carrageenen Paw Edema in Rats, % Inhibition” value (“Effect of Compounds … % Inhibition” for short) was determined as 42.5%.

In the case of `Cc1cnc(NC(=O)C2=C(O)c3ccccc3S(=O)(=O)N2C)s1` [Meloxicam, reference compound], the “Effect of Compounds … % Inhibition” value in assay [2] (30 mg/kg) worked out at 56%. In the assay on COX-2, the “selective inhibition of the COX-2 isoform” value was “more or less selectively inhibit the COX-2 isoform”.

`CC(C)S(=O)(=O)C1C(=O)N(Cc2ccc(F)c(F)c2)C(=O)c2ccc(Cl)cc21` (stereo not drawn) [Example 10]: in assay [3], the inhibition at 0.1 µg/mL was -3%, the inhibition at 1 µg/mL worked out at 100% and the inhibition at 10 µg/mL amounted to 100%. Further, in assay [1], the inhibition at 0.1 µg/mL came to 13%, the inhibition at 1 µg/mL was 40% and the inhibition at 10 µg/mL turned out to be 96%. On human recombinant COX-2, the IC50 came to 100 nM. In addition, on human recombinant COX-1, the inhibition at 0.1 µM was found to be 20%, the inhibition at 1 µM is 55% and the inhibition at 10 µM worked out at 88%. The “Effect of Compounds … % Inhibition” value in assay [2] (30 mg/kg) was determined as 38.6%.

In the case of `COc1ccc2c(c1)c(CC(=O)O)c(C)n2C(=O)c1ccc(Cl)cc1` [Indomethacin, reference compound], in assay [2] (10 mg/kg), the “Effect of Compounds … % Inhibition” value was 58%.

With `O=C1c2ccccc2C(S(=O)(=O)CC(F)(F)F)C(=O)N1Cc1ccccc1` (stereo not drawn) [Example 11], in assay [3], the inhibition at 0.1 µg/mL was found to be 23%, the inhibition at 1 µg/mL came to 32% and the inhibition at 10 µg/mL was determined as 52%. Besides, in assay [1], the inhibition at 0.1 µg/mL is 4%, the inhibition at 1 µg/mL was determined as 21% and the inhibition at 10 µg/mL is 50%. In addition, on human recombinant COX-2, the IC50 is 64000 nM. Besides, at human recombinant COX-2 (setting [4]), the inhibition at 1 µM is 0% and the inhibition at 10 µM was 30%. Besides, at human recombinant COX-1 (1 μM), the inhibition at 1 µM came out at 0%. For the same compound, the inhibition at 10 µM on human recombinant COX-1 (10 μM) was found to be 64%.

As for `CC(C)S(=O)(=O)C1C(=O)N(Cc2ccccc2)C(=O)c2ccccc21` (stereo not drawn) [Example 5], in assay [3], the inhibition at 0.1 µg/mL amounted to 27%, the inhibition at 1 µg/mL turned out to be 56% and the inhibition at 10 µg/mL was 58%. In assay [1], the inhibition at 0.1 µg/mL was -6%, the inhibition at 1 µg/mL came out at 11% and the inhibition at 10 µg/mL was determined as 23%. In addition, the inhibition at 0.1 µM on human recombinant COX-2 (COS, read-out: Inhibition of COX Enzymes in COS Cell Assays, COX-2 % inhibition, 0.1 μM) was 17%. On human recombinant COX-2 (setting [4]), the inhibition at 1 µM was determined as 37% and the inhibition at 10 µM came out at 51%. For the same compound, on human recombinant COX-1, the inhibition at 0.1 µM came to 13%, the inhibition at 1 µM was found to be 43% and the inhibition at 10 µM came out at 74%.
